In the supplement of paper PMC10307832:

Legend:
Experiment in all cases: relative viability (nuclei count vs DMSO), 5 days (fraction); higher = more cells survive
[1] = compound: COc1ncc(-c2ccc3nccc(-c4ccnnc4)c3c2)cc1NS(=O)(=O)c1ccc(F)cc1F [Omipalisib] + Cc1nc(Nc2ncc(C(=O)Nc3c(C)cccc3Cl)s2)cc(N2CCN(CCO)CC2)n1 [Dasatinib] (partner 0.075 µM)
Procedure, shortened: (§1)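 Lung cancer cell lines in 1536-well plates got either a single drug or a fixed anchor-drug dose together with five library-drug doses (not always all listed) in √10 steps, by pin tool, on the day after seeding. Nuclei were counted after 5 days, and relative viability is the treated-to-vehicle ratio of nuclei counts. Values are medians of duplicate plates.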

[2] = compound: COc1ncc(-c2ccc3nccc(-c4ccnnc4)c3c2)cc1NS(=O)(=O)c1ccc(F)cc1F [Omipalisib] + CS(=O)(=O)N1CCN(Cc2cc3nc(-c4cccc5[nH]ncc45)nc(N4CCOCC4)c3s2)CC1 [Pictilisib] (partner 1 µM)
Procedure, shortened: as §1

[3] = compound: COc1ncc(-c2ccc3nccc(-c4ccnnc4)c3c2)cc1NS(=O)(=O)c1ccc(F)cc1F [Omipalisib] + NC(=O)Nc1cc(-c2cccc(F)c2)sc1C(=O)N[C@H]1CCCNC1 [AZD7762] (partner 0.2 µM)
Procedure, shortened: as §1

[4] = compound: COc1ncc(-c2ccc3nccc(-c4ccnnc4)c3c2)cc1NS(=O)(=O)c1ccc(F)cc1F [Omipalisib] + O=C(CCCCCCC(=O)Nc1ccccc1)NO [Vorinostat] (partner 1 µM)
Procedure, shortened: as §1

[5] = compound: COc1ncc(-c2ccc3nccc(-c4ccnnc4)c3c2)cc1NS(=O)(=O)c1ccc(F)cc1F [Omipalisib] + Nc1ncn([C@H]2C[C@H](O)[C@@H](CO)O2)c(=O)n1 [Decitabine] (partner 2 µM)
Procedure, shortened: as §1

[6] = compound: COc1ncc(-c2ccc3nccc(-c4ccnnc4)c3c2)cc1NS(=O)(=O)c1ccc(F)cc1F [Omipalisib] + C[C@]1(O)C[C@@H](c2nc(-c3ccc4ccc(-c5ccccc5)nc4c3)c3c(N)nccn32)C1 [Linsitinib] (partner 1 µM)
Procedure, shortened: as §1

PC-14
relative viability ([1]; first compound 0.0003 µM): 0.31
relative viability ([1]; first compound 0.003 µM): 0.237
relative viability ([1]; first compound 0.03 µM): 0.079
relative viability ([2]; first compound 0.0003 µM): 0.749
relative viability ([2]; first compound 0.003 µM): 0.619
relative viability ([2]; first compound 0.03 µM): 0.383
relative viability ([3]; first compound 0.0003 µM): 0.294
relative viability ([3]; first compound 0.003 µM): 0.327
relative viability ([3]; first compound 0.03 µM): 0.18
relative viability ([4]; first compound 0.0003 µM): 0.683
relative viability ([4]; first compound 0.003 µM): 0.527
relative viability ([4]; first compound 0.03 µM): 0.373
relative viability ([5]; first compound 0.0003 µM): 0.19
relative viability ([5]; first compound 0.003 µM): 0.248
relative viability ([5]; first compound 0.03 µM): 0.222
relative viability ([6]; first compound 0.0003 µM): 0.954
relative viability ([6]; first compound 0.003 µM): 0.931
relative viability ([6]; first compound 0.03 µM): 0.794

HCC-78
relative viability ([1]; first compound 0.0003 µM): 0.359
relative viability ([1]; first compound 0.003 µM): 0.313
relative viability ([1]; first compound 0.03 µM): 0.219
relative viability ([2]; first compound 0.0003 µM): 0.198
relative viability ([2]; first compound 0.003 µM): 0.183
relative viability ([2]; first compound 0.03 µM): 0.189
relative viability ([3]; first compound 0.0003 µM): 0.593
relative viability ([3]; first compound 0.003 µM): 0.508
relative viability ([3]; first compound 0.03 µM): 0.281
relative viability ([4]; first compound 0.0003 µM): 0.334
relative viability ([4]; first compound 0.003 µM): 0.337
relative viability ([4]; first compound 0.03 µM): 0.246
relative viability ([5]; first compound 0.0003 µM): 0.623
relative viability ([5]; first compound 0.003 µM): 0.462
relative viability ([5]; first compound 0.03 µM): 0.344
relative viability ([6]; first compound 0.0003 µM): 0.389
relative viability ([6]; first compound 0.003 µM): 0.358
relative viability ([6]; first compound 0.03 µM): 0.24

LU99A
relative viability ([1]; first compound 0.0003 µM): 0.482
relative viability ([1]; first compound 0.003 µM): 0.331
relative viability ([1]; first compound 0.03 µM): 0.267
relative viability ([2]; first compound 0.0003 µM): 0.303
relative viability ([2]; first compound 0.003 µM): 0.242
relative viability ([2]; first compound 0.03 µM): 0.265
relative viability ([3]; first compound 0.0003 µM): 0.291
relative viability ([3]; first compound 0.003 µM): 0.265
relative viability ([3]; first compound 0.03 µM): 0.165
relative viability ([4]; first compound 0.0003 µM): 0.441
relative viability ([4]; first compound 0.003 µM): 0.353
relative viability ([4]; first compound 0.03 µM): 0.228
relative viability ([5]; first compound 0.0003 µM): 0.912
relative viability ([5]; first compound 0.003 µM): 0.519
relative viability ([5]; first compound 0.03 µM): 0.311
relative viability ([6]; first compound 0.0003 µM): 0.484
relative viability ([6]; first compound 0.003 µM): 0.382
relative viability ([6]; first compound 0.03 µM): 0.261

PC-3 [JPC-3]
relative viability ([1]; first compound 0.0003 µM): 0.942
relative viability ([1]; first compound 0.003 µM): 0.917
relative viability ([1]; first compound 0.03 µM): 0.726
relative viability ([2]; first compound 0.0003 µM): 0.816
relative viability ([2]; first compound 0.003 µM): 0.766
relative viability ([2]; first compound 0.03 µM): 0.689
relative viability ([3]; first compound 0.0003 µM): 0.73
relative viability ([3]; first compound 0.003 µM): 0.685
relative viability ([3]; first compound 0.03 µM): 0.424
relative viability ([4]; first compound 0.0003 µM): 0.889
relative viability ([4]; first compound 0.003 µM): 0.821
relative viability ([4]; first compound 0.03 µM): 0.613
relative viability ([5]; first compound 0.0003 µM): 0.776
relative viability ([5]; first compound 0.003 µM): 0.816
relative viability ([5]; first compound 0.03 µM): 0.627
relative viability ([6]; first compound 0.0003 µM): 0.962
relative viability ([6]; first compound 0.003 µM): 0.976
relative viability ([6]; first compound 0.03 µM): 0.92

NCI-H358
relative viability ([1]; first compound 0.0003 µM): 0.127
relative viability ([1]; first compound 0.003 µM): 0.11
relative viability ([1]; first compound 0.03 µM): 0.131
relative viability ([2]; first compound 0.0003 µM): 0.285
relative viability ([2]; first compound 0.003 µM): 0.272
relative viability ([2]; first compound 0.03 µM): 0.278
relative viability ([3]; first compound 0.0003 µM): 0.43
relative viability ([3]; first compound 0.003 µM): 0.366
relative viability ([3]; first compound 0.03 µM): 0.244
relative viability ([4]; first compound 0.0003 µM): 0.573
relative viability ([4]; first compound 0.003 µM): 0.546
relative viability ([4]; first compound 0.03 µM): 0.272
relative viability ([5]; first compound 0.0003 µM): 0.199
relative viability ([5]; first compound 0.003 µM): 0.174
relative viability ([5]; first compound 0.03 µM): 0.141
relative viability ([6]; first compound 0.0003 µM): 0.639
relative viability ([6]; first compound 0.003 µM): 0.457
relative viability ([6]; first compound 0.03 µM): 0.289

NCI-H838
relative viability ([1]; first compound 0.0003 µM): 0.263
relative viability ([1]; first compound 0.003 µM): 0.223
relative viability ([1]; first compound 0.03 µM): 0.23
relative viability ([2]; first compound 0.0003 µM): 0.422
relative viability ([2]; first compound 0.003 µM): 0.393
relative viability ([2]; first compound 0.03 µM): 0.313
relative viability ([3]; first compound 0.0003 µM): 0.895
relative viability ([3]; first compound 0.003 µM): 0.828
relative viability ([3]; first compound 0.03 µM): 0.725
relative viability ([4]; first compound 0.0003 µM): 0.678
relative viability ([4]; first compound 0.003 µM): 0.639
relative viability ([4]; first compound 0.03 µM): 0.557
relative viability ([5]; first compound 0.0003 µM): 0.471
relative viability ([5]; first compound 0.003 µM): 0.391
relative viability ([5]; first compound 0.03 µM): 0.268
relative viability ([6]; first compound 0.0003 µM): 0.902
relative viability ([6]; first compound 0.003 µM): 0.74
relative viability ([6]; first compound 0.03 µM): 0.346

HCC-827
relative viability ([1]; first compound 0.0003 µM): 0.194
relative viability ([1]; first compound 0.003 µM): 0.233
relative viability ([1]; first compound 0.03 µM): 0.147
relative viability ([2]; first compound 0.0003 µM): 0.864
relative viability ([2]; first compound 0.003 µM): 0.974
relative viability ([2]; first compound 0.03 µM): 0.533
relative viability ([3]; first compound 0.0003 µM): 0.239
relative viability ([3]; first compound 0.003 µM): 0.213
relative viability ([3]; first compound 0.03 µM): 0.143
relative viability ([4]; first compound 0.0003 µM): 0.864
relative viability ([4]; first compound 0.003 µM): 0.682
relative viability ([4]; first compound 0.03 µM): 0.438
relative viability ([5]; first compound 0.0003 µM): 0.298
relative viability ([5]; first compound 0.003 µM): 0.244
relative viability ([5]; first compound 0.03 µM): 0.239
relative viability ([6]; first compound 0.0003 µM): 0.911
relative viability ([6]; first compound 0.003 µM): 0.922
relative viability ([6]; first compound 0.03 µM): 0.387
